# Assay results from ChEMBL document CHEMBL2176970, “Discovery and optimization of a series of 3-(3-phenyl-3H-imidazo[4,5-b]pyridin-2-yl)pyridin-2-amines: orally bioavailable, selective, and potent ATP-independent Akt inhibitors” (J Med Chem, 2012).
# Active and inactive are the calls of the source. No cut-off for these calls is given here.
# Tests used:
# [1] = biological target: Serine/threonine-protein kinase Sgk3 (Homo sapiens) (UniProt Q96BR1); assay: Inhibition of SGK3 using fluorescent labelled substrate at 5 uM by caliper method
# [2] = biological target: T1, RAC-alpha serine/threonine-protein kinase (Homo sapiens, UniProt P31749); settings: Sf9
# [3] = biological target: Ribosomal protein S6 kinase beta-1 (Homo sapiens) (UniProt P23443); assay: Inhibition of P70S6KB1 using fluorescent labelled substrate at 5 uM by caliper method
# [4] = biological target: Insulin receptor (Homo sapiens) (UniProt P06213); assay: Inhibition of INSR using fluorescent labelled substrate at 5 uM by caliper method
# [5] = biological target: Serine/threonine-protein kinase pim-1 (Homo sapiens) (UniProt P11309); assay: Inhibition of PIM1 using fluorescent labelled substrate at 5 uM by caliper method
# [6] = biological target: T1, RAC-alpha serine/threonine-protein kinase; assay: Inhibition of Akt1 (1 to 480) expressed in Sf9 cells by indirect affinity mass spectrometry assay
# [7] = biological target: T1, RAC-alpha serine/threonine-protein kinase; assay: Inhibition of Akt1 in human AN3CA cells assessed as phosphorylation of Akt at S473 after 2 hrs by Western Blot analysis; type: cell-based, AN3-CA
# [8] = biological target: T1, RAC-alpha serine/threonine-protein kinase; assay: Inhibition of Akt1 in human A2780 cells assessed as phosphorylation PRAS40 at T246 after 2 hrs by Western Blot analysis; type: cell-based
# AN3-CA = assay: Antiproliferative activity against human AN3CA cells after 72 hrs by MTS assay; type: functional, cell-based
# [9] = biological target: T1, RAC-alpha serine/threonine-protein kinase; assay: Inhibition of Akt 1 in human AN3CA cells assessed as phosphorylation of Akt at T308 after 2 hrs by Western Blot analysis; type: cell-based, AN3-CA
# [10] = biological target: Angiopoietin-1 receptor (Homo sapiens) (UniProt Q02763); assay: Inhibition of TIE2 using fluorescent labelled substrate at 5 uM by caliper method
# [11] = biological target: Serine/threonine-protein kinase Sgk1 (Homo sapiens) (UniProt O00141); assay: Inhibition of SGK1 using fluorescent labelled substrate at 5 uM by caliper method
# [12] = Half life in female CD1 mouse liver microsomes at 1 uM by LC/MS/MS; type: ADME, Microsome
# [13] = biological target: Serine/threonine-protein kinase PAK 3 (Homo sapiens) (UniProt O75914); assay: Inhibition of PAK3 using fluorescent labelled substrate at 5 uM by caliper method
# [14] = biological target: cAMP-dependent protein kinase catalytic subunit PRKX (Homo sapiens) (UniProt P51817); assay: Inhibition of PRKX using fluorescent labelled substrate at 5 uM by caliper method
# [15] = biological target: Protein kinase C alpha type (Homo sapiens) (UniProt P17252); assay: Inhibition of PKCalpha using fluorescent labelled substrate at 5 uM by caliper method
# [16] = biological target: Fibroblast growth factor receptor 1 (Homo sapiens) (UniProt P11362); assay: Inhibition of FGFR1 using fluorescent labelled substrate at 5 uM by caliper method
# [17] = biological target: Ribosomal protein S6 kinase alpha-5 (Homo sapiens) (UniProt O75582); assay: Inhibition of MSK1 using fluorescent labelled substrate at 5 uM by caliper method
# [18] = biological target: Cyclin-dependent kinase 2/cyclin E (Homo sapiens) (UniProt P24864+P24941+O96020); assay: Inhibition of CDK2/cyclinE using fluorescent labelled substrate at 5 uM by caliper method; type: protein-complex assay
# [19] = biological target: RAC-beta serine/threonine-protein kinase (Homo sapiens, UniProt P31751); assay: Binding affinity to Akt2 (1 to 481) expressed in Sf9 cells assessed as change in melting temperature at 15 uM
# [20] = biological target: T1, RAC-alpha serine/threonine-protein kinase; assay: Inhibition of Akt 1 in human A2780 cells assessed as phosphorylation of Akt at T308 after 2 hrs by Western Blot analysis; type: cell-based
# [21] = biological target: Serine/threonine-protein kinase PAK 2 (Homo sapiens) (UniProt Q13177); assay: Inhibition of PAK2 using fluorescent labelled substrate at 5 uM by caliper method
# [22] = biological target: Proto-oncogene tyrosine-protein kinase receptor Ret (Homo sapiens) (UniProt P07949); assay: Inhibition of RET using fluorescent labelled substrate at 5 uM by caliper method
# Cytochrome P450 3A4 = Cytochrome P450 3A4 (Homo sapiens, UniProt P08684); assay: Inhibition of CYP3A4 in human liver microsomes using midazolam as substrate after 10 mins; type: ADME, Microsome
# Cytochrome P450 2C19 = Cytochrome P450 2C19 (Homo sapiens, UniProt P33261); assay: Inhibition of CYP2C19 in human liver microsomes using S-mephenytoin as substrate after 10 mins; type: ADME, Microsome
# [23] = biological target: RAC-gamma serine/threonine-protein kinase (Homo sapiens, UniProt Q9Y243); assay: Binding affinity to Akt3 (1 to 479) expressed in Sf9 cells assessed as change in melting temperature at 15 uM
# [24] = biological target: Calcium/calmodulin-dependent protein kinase type II subunit delta (Homo sapiens) (UniProt Q13557); assay: Inhibition of CAMK2delta using fluorescent labelled substrate at 5 uM by caliper method
# [25] = biological target: T1, RAC-alpha serine/threonine-protein kinase; assay: Inhibition of Akt1 in human AN3CA cells assessed as phosphorylation PRAS40 at T246 after 2 hrs by Western Blot analysis; type: cell-based, AN3-CA
# [26] = biological target: Rho-associated protein kinase 1 (Homo sapiens) (UniProt Q13464); assay: Inhibition of ROCK1 using fluorescent labelled substrate at 5 uM by caliper method
# [27] = biological target: T1, RAC-alpha serine/threonine-protein kinase; assay: Inhibition of Akt1 (1 to 480) expressed in Sf9 cells using biotin-GRPRTSSFAEG as substrate after 20 mins by Alpha-screen assay
# T1 sequence (P31749 whole entry): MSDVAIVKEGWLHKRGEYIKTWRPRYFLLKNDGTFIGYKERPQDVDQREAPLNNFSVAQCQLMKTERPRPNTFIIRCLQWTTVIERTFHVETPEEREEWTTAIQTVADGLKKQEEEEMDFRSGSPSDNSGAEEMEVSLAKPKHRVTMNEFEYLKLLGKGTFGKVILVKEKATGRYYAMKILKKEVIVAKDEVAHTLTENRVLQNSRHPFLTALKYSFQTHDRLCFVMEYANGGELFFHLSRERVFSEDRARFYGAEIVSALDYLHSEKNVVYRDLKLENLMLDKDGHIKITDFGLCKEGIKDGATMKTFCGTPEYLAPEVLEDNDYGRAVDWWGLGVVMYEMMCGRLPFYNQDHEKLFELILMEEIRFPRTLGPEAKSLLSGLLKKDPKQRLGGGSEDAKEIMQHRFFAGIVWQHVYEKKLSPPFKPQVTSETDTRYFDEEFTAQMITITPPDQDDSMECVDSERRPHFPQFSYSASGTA
# Rho-associated protein kinase 1 (Homo sapiens), sequence (Q13464 2-1354 limits assumed): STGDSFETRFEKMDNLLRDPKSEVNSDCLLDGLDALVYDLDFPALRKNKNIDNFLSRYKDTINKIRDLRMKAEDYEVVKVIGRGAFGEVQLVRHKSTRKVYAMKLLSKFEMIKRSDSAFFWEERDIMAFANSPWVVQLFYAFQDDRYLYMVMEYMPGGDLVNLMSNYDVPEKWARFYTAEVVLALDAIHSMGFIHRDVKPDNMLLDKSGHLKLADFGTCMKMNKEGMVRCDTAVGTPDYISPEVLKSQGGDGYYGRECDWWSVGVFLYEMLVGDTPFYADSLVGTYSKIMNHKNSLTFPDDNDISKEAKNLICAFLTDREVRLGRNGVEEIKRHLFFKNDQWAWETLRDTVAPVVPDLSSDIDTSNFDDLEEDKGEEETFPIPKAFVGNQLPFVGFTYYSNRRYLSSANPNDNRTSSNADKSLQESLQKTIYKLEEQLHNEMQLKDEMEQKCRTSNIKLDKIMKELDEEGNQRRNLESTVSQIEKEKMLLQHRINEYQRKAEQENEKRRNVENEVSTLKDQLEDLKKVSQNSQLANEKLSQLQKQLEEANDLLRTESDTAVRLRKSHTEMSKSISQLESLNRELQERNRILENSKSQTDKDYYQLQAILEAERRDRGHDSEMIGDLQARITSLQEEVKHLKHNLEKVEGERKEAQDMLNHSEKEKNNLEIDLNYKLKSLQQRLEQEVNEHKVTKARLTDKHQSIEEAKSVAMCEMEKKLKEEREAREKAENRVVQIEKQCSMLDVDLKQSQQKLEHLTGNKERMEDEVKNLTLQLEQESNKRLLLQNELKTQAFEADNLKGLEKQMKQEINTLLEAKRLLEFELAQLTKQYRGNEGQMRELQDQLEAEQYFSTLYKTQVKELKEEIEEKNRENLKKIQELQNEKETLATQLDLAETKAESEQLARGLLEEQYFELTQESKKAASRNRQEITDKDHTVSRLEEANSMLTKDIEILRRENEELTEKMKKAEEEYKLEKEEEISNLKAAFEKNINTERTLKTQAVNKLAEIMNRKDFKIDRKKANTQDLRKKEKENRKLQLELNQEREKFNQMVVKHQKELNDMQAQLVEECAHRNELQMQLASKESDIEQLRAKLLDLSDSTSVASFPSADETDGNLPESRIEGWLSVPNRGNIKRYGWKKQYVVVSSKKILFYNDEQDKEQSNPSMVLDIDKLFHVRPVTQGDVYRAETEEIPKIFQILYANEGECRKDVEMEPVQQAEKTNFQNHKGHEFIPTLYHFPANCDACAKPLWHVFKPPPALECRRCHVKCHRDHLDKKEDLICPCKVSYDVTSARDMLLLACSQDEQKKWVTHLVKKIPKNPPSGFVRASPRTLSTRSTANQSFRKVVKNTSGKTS
# Proto-oncogene tyrosine-protein kinase receptor Ret (Homo sapiens), sequence (P07949 whole entry): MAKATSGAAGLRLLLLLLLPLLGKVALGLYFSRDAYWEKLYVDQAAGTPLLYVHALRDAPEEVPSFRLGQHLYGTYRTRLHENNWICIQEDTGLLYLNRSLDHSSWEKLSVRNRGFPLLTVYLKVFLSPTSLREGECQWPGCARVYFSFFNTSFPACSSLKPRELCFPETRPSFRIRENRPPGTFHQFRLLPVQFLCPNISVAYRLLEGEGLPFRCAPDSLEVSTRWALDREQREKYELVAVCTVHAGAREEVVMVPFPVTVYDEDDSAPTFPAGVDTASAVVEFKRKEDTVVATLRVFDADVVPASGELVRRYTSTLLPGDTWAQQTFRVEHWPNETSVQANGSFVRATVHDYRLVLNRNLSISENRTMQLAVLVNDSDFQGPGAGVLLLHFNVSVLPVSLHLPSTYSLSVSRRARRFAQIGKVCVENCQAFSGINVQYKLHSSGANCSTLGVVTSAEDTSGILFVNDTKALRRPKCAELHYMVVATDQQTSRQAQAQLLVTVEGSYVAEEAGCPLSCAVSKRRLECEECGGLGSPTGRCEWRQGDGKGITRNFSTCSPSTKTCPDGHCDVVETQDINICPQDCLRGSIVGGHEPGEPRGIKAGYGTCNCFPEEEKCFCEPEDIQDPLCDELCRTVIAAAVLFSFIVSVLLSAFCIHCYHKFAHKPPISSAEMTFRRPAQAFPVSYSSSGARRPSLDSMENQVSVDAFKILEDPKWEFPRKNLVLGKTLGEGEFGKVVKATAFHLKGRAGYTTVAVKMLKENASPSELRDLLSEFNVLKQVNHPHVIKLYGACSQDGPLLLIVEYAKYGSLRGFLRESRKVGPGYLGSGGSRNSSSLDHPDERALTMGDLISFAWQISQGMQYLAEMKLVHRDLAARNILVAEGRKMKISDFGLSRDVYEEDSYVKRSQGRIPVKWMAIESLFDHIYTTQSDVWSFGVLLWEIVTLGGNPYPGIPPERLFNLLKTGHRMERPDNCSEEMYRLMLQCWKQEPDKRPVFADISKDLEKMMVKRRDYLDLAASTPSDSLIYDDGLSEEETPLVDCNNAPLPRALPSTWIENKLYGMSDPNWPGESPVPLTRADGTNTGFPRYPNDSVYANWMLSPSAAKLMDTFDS
# cAMP-dependent protein kinase catalytic subunit PRKX (Homo sapiens), sequence (P51817 whole entry): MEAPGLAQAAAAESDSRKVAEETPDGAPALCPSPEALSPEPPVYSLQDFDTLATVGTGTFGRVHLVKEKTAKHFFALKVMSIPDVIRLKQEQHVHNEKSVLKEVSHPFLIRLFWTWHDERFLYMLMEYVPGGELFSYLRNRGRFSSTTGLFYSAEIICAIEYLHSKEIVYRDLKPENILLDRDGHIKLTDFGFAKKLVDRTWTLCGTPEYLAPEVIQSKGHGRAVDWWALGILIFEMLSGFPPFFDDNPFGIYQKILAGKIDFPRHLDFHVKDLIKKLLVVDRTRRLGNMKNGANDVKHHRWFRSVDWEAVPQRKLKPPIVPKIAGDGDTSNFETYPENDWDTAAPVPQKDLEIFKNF
# Cytochrome P450 3A4, sequence (P08684 whole entry): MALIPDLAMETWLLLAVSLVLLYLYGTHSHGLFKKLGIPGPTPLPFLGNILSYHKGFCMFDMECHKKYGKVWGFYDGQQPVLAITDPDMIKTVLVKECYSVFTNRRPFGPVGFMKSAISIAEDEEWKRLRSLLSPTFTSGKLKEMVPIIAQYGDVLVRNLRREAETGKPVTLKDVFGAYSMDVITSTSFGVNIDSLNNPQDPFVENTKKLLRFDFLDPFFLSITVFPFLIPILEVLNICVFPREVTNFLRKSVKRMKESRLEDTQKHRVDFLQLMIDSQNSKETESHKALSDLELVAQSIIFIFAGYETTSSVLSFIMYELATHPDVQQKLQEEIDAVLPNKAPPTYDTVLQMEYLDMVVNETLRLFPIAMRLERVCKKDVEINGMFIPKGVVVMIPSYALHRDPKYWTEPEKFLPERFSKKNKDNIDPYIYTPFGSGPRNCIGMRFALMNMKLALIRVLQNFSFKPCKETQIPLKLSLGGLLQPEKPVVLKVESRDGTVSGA
# Cytochrome P450 2C19, sequence (P33261 whole entry): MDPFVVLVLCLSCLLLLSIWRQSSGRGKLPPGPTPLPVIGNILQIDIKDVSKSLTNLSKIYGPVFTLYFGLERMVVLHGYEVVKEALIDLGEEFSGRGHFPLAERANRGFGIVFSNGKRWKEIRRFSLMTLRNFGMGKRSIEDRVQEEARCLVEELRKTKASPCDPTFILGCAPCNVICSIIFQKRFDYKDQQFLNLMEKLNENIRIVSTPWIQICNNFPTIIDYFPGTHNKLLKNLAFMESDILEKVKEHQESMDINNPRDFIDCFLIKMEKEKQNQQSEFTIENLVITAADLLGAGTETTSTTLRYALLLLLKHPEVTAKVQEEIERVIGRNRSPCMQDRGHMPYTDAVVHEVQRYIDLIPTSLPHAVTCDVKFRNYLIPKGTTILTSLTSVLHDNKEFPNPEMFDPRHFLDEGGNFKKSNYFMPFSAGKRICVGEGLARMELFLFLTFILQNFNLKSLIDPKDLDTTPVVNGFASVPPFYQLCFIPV
# Serine/threonine-protein kinase PAK 2 (Homo sapiens), sequence (Q13177 whole entry): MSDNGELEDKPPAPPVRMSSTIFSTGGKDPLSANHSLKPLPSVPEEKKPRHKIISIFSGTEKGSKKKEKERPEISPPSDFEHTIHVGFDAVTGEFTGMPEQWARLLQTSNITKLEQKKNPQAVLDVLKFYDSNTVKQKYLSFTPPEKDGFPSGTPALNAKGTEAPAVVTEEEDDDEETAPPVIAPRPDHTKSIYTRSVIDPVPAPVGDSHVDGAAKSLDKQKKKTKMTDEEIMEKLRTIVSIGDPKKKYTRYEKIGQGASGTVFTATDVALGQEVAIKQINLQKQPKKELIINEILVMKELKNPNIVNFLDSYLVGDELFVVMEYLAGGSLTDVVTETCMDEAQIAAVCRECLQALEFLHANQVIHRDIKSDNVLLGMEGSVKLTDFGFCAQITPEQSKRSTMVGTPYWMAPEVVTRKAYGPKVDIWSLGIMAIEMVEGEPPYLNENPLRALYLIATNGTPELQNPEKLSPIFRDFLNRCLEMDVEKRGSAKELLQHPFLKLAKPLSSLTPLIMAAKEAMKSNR
Structure (SMILES),inhibition [1] [%],ΔTm [2] [°C],inhibition [3] [%],inhibition [4] [%],inhibition [5] [%],IC50 [7] [µM],IC50 [8] [µM],IC50 (AN3-CA) [µM],IC50 [9] [µM],inhibition [10] [%],inhibition [11] [%],half-life at 1 µM [12] [h],inhibition [13] [%],inhibition [14] [%],inhibition [15] [%],inhibition [16] [%],inhibition [17] [%],inhibition [18] [%],ΔTm [19] [°C],IC50 [20] [µM],also measured
Nc1ncccc1-c1nc2cccnc2n1-c1ccc(CC(=O)Nc2ccccc2)cc1,> 25,6.7,> 25,> 25,> 25,2.5,> 10,70,> 10,> 25,> 25,> 1,> 25,> 25,> 25,> 25,> 25,> 25,1.2,1.3,IC50 [6]: 14 µM; inhibition [21]: > 25%; inhibition [22]: > 25%; IC50 (Cytochrome P450 3A4): > 10 µM; IC50 (Cytochrome P450 2C19): > 10 µM; deltaTm [23]: inactive; inhibition [24]: > 25%; IC50 [25]: > 10 µM; inhibition [26]: > 25%
Nc1ncccc1-c1nc2cccnc2n1-c1ccc(CNC(=O)c2ccccc2)cc1,> 25,6.4,> 25,> 25,> 25,5.6,> 10,> 100,> 10,> 25,> 25,> 1,> 25,> 25,> 25,> 25,> 25,> 25,1.3,0.37,inhibition [21]: > 25%; inhibition [22]: > 25%; IC50 (Cytochrome P450 3A4): > 10 µM; IC50 [27]: 0.023 µM; IC50 (Cytochrome P450 2C19): > 10 µM; deltaTm [23]: inactive; inhibition [24]: > 25%; IC50 [25]: > 10 µM; inhibition [26]: > 25%
